In patent US20230117205A1, “B7-H4 ANTIBODY-DRUG CONJUGATES FOR THE TREATMENT OF CANCER” (SEAGEN INC., priority 2021, published 2023):

Tests used:
SKBR3 = experiment: ADCP with primary monocytes/macrophages; assay type: cell-based, human; settings: 2 independent donors
Procedure: The B7-H4-expressing cell line SKBR3 and primary monocytes/macrophages were used to evaluate SGN-B7H4V-mediated ADCP. […] Phagocytosis of opsonized cells was assessed by flow cytometry.
SKBR3 tumor cells were fluorescently labeled with PKH26 (PKH26 Red Fluorescent Cell Membrane Labeling Kit, Sigma-Aldrich #PKH26GL-1KT), according to manufacturer instructions: SKBR3 cells were harvested with Versene (Gibco #15040-066) for 10 minutes and washed once with PBS. Cell were resuspended in 1 mL Diluent C (included in the PKH26 Red Fluorescent Cell Membrane Labeling Kit, Sigma-Aldrich #PKH26GL-1KT). In a separate tube, 1 mL Diluent C was mixed with 4 μL PKH26 dye by pipetting up and down. The dye solution was transferred to resuspended cells, quickly mixed by pipetting up and down several times, and incubated at room temperature for 5 minutes. Labeling reaction was stopped by adding 2 mL FBS (0.05-0.2 EU/ml Endotoxin, R&D Systems #S11550H). Cells were then washed once with RPMI 1640 (Gibco #11875-093) containing 10% FBS. Cells were resuspended in PBS at concentration of 0.8×10^6 cells/mL and transferred (300 μL/well) to a 96-well U-bottom plate (Falcon #353227). […] Phagocytosis is reported as the PKH26 geometric mean fluorescence intensity (gMFI) of gated CD14+/CD45+ cells analyzed using Flowjo. […]

[1] = system: MDA-MB-468 xenograft model; experiment: MDA-MB-468 xenograft dose range, Study MDAMB468-9; assay type: in vivo, NSG mice; settings: three weekly doses
Procedure: Tumor volume was measured twice weekly until study day 85.
Female NSG mice were implanted with 1×10^6MDA-MB-468 cells in 25% Matrigel H C (Corning #354248) subcutaneously. Once tumor volumes reached 100 mm^3, mice were randomized into treatment groups of 5 mice each and dosed with 0.3, 1, or 3 mg/kg every seven days for three total doses (q7dx3). Twenty-four hours prior to receiving each ADC dose, each animal was treated with 10 mg/kg hIVIG (Grifolds). Tumor volumes were measured twice per week, animals were euthanized when tumor volume reached 700-1000 mm^3. Stock concentrations of ADC were diluted to desired concentration (with 0.01% Tween20 in PBS) and injected i.p. into each treatment group.

HR+ BC PDX models = experiment: HR+ breast cancer patient-derived xenograft models; assay type: in vivo, mice; settings: for % TGI: 3 mg/kg q7dx3, vs untreated
Procedure: Specifically, Stock mice were bilaterally implanted with fragments from one of the Champions TumorGraft® models representing human HR^+ BC or ovarian cancer. After the tumors reached 1000-1500 mm^3, they were harvested, and the tumor fragments were implanted subcutaneously (s.c.) in the left flank of the female study mice. Each animal was implanted with a specific passage lot and documented. Tumor growth was monitored twice a week using digital calipers, and the tumor volume (TV) was calculated using the formula (0.52×[length×width^2]). When the TV reached approximately 150-300 mm^3, animals were matched by tumor size and assigned into control (untreated) or treatment groups (n=3 animals/group). Each animal in the treatment groups was dosed with 3 mg/kg of ADC every seven days for three total doses (q7dx3). […]
Inhibition of tumor growth was determined by calculating the percent TGI on the day at which animals in the control group were terminated (100%×[1−(final MTV−initial MTV of a treated group)/(final MTV−initial MTV of the control group)]). Treatment started on Day 0.

HCC1569 xenograft model = experiment: HCC1569 xenograft, Study HCC1569-2; assay type: in vivo, NSG mice; settings: 3 mg/kg, three weekly doses, i.p.
Procedure: Tumor volume was measured once or twice weekly until study day 71.
Female NSG mice were implanted with 1×10^6HCC1569 tumor cells in 25% Matrigel H C (Corning #354248) subcutaneously. Once tumor volumes reached 100 mm^3, mice were randomized into treatment groups of 5 mice each and dosed with 3 mg/kg of ADC every seven days for three total doses (q7dx3). Each mouse was treated with 10 mg/kg hIVIG (Grifolds) twenty-four hours prior to receiving each ADC dose. Tumor volumes were measured 1-3 times per week, and animals were euthanized when tumor volume reached 700-1000 mm^3. Stock concentrations of ADC were diluted to a desired concentration (with 0.01% Tween20 in PBS) and injected i.p. into each treatment group.

Substance: SGN-B7H4V: ADC of fully human IgG1 anti-B7-H4 mAb conjugated to monomethyl auristatin E (MMAE) via a protease-cleavable valine-citrulline linker (vedotin)
- ADCP activity (SKBR3): ADCP activity above that seen with the positive control
- anti-tumor activity (tumor volume) ([1]; 0.3 mg/kg): minimal anti-tumor activity
- anti-tumor activity (tumor volume) ([1]; 1 mg/kg): transient regression of tumor volumes in all mice
- anti-tumor activity (tumor volume) ([1]; 3 mg/kg): transient regression of tumor volumes in all mice
- PDX models with antitumor activity (HR+ BC PDX models; HR+ BC, 3 mg/kg, 3 weekly doses): ⅙
- % TGI (HR+ BC PDX models; HR+ BC_1, Day 38): 7%
- % TGI (HR+ BC PDX models; HR+ BC_2, Day 34): 79%
- % TGI (HR+ BC PDX models; HR+ BC_3, Day 16): 28%
- % TGI (HR+ BC PDX models; HR+ BC_4, Day 59): 12%
- % TGI (HR+ BC PDX models; HR+ BC_5, Day 59): 11%
- % TGI (HR+ BC PDX models; HR+ BC_6, Day 62): 16%
- anti-tumor activity (tumor volume) (HCC1569 xenograft model): robust tumor growth delay
